Active and inactive are the calls of the source. The calls are words filed in the database; no cut-off is given here.
Experiments:
[1] = tested on: Mycobacterium tuberculosis; experiment: Inhibition of Mycobacterium tuberculosis ThyA using dUMP as substrate up to 100 uM measured immediatedly and at 10 mins post mTHF addition by spectrophotometric analysis
[2] = tested on: Mycobacterium tuberculosis; experiment: (§1) Inhibition of Mycobacterium tuberculosis ThyX using [5-3H]dUMP as substrate after 10 mins by liquid scintillation counting analysis
[3] = tested on: Mycobacterium tuberculosis; experiment: Activation of Mycobacterium tuberculosis ThyA using dUMP as substrate up to 100 uM measured immediatedly and at 10 mins post mTHF addition by spectrophotometric analysis
[4] = as §1

| Structure (SMILES) | inhibition [1] | inhibition [2] | Activity [3] | IC50 [4] |
| --- | --- | --- | --- | --- |
| COCCOCCOCCOCc1cn([C@H]2C[C@H](O)[C@@H](COP(=O)(O)O)O2)c(=O)[nH]c1=O | inactive | inactive | – | – |
| CCCCCCCCCCc1cn(Cc2cn([C@H]3C[C@H](O)[C@@H](COP(=O)(O)O)O3)c(=O)[nH]c2=O)nn1 | inactive | inactive | – | – |
| CCCCCCCCCCOCc1cn([C@H]2C[C@H](O)[C@@H](COP(=O)(O)O)O2)c(=O)[nH]c1=O | inactive | inactive | – | – |
| CCCCCCCCCCCOCc1cn([C@H]2C[C@H](O)[C@@H](COP(=O)(O)O)O2)c(=O)[nH]c1=O | inactive | – | Active | 8.32 µM |
| CCCCCCCCCCCCOCc1cn([C@H]2C[C@H](N=[N+]=[N-])[C@@H](COP(=O)(O)O)O2)c(=O)[nH]c1=O | inactive | inactive | – | – |
| CCCCCCCCc1cn(Cc2cn([C@H]3C[C@H](O)[C@@H](COP(=O)(O)O)O3)c(=O)[nH]c2=O)nn1 | inactive | inactive | – | – |
| CCCCCCCCCCCCOCc1cn([C@H]2C[C@H](O)[C@@H](COP(=O)(O)O)O2)c(=O)[nH]c1=O | inactive | inactive | – | – |
